Measurements published in article PMC3048208 (British Journal of Cancer, 2011).
“Also recorded” adds a separate entry of the source. Counter-ions that a name gives are not always drawn. Like-named read-outs stand apart in the source and are kept apart here.

What was measured:
[1] = tested on: patients with solid tumours; parameters: method as in Yong et al, 2008; conditions: three times weekly, 3 out of 4 weeks; ref Yong et al, 2008; cited from earlier work
[2] = parameters: method as in Novotny-Diermayr et al, 2010; conditions: animal pre-clinical models; ref Novotny-Diermayr et al, 2010; cited from earlier work
[3] = tested on: HCT-116 cells; parameters: method as in Novotny-Diermayr et al, 2010; conditions: ref Novotny-Diermayr et al, 2010; cited from earlier work
[4] = tested on: wide variety of cell lines; parameters: method as in Novotny-Diermayr et al, 2010; conditions: in vitro; ref Novotny-Diermayr et al, 2010; cited from earlier work
[5] = tested on: other zinc-binding enzymes; parameters: method as in Novotny-Diermayr et al, 2010; conditions: in vitro; ref Novotny-Diermayr et al, 2010; cited from earlier work
[6] = tested on: dog; conditions: 3 days per week in a 28-day cycle; cited from earlier work
[7] = tested on: acetylated histone H3 (AcH3) in PBMCs; experiment: AcH3 levels in PBMCs by western blot; assay type: in vivo, human
Procedure: Based on the preclinical data showing parallel changes in AcH3 in PBMCs and tumour tissue, PBMCs were selected for study in the phase I trial ([Novotny-Diermayr et al, 2008]; [Yong et al, 2009]).
Whole blood samples for PD evaluation were taken in cycle 1, days 1 and 15 at pre-dose followed by 3 and 24 h post-dose. For each sample, blood was collected at room temperature in an 8-ml BD Vacutainer CPT tube (Becton, Dickson and Company, Franklin Lakes, NJ, USA). Blood samples were processed in a refrigerated centrifuge within 30 min of collection to preserve histone acetylation status. PBMCs were extracted from blood, processed to pellet form and stored at −80°C. Levels of AcH3 in PBMCs were determined using a validated western blot technique ([Novotny-Diermayr et al, 2008]).

[8] = Plasma pharmacokinetics of SB939 in patients, LC–MS/MS, non-compartmental; assay type: in vivo, human; conditions: for AUC(0-inf) / Cmax / half-life / Tmax: human, plasma
Procedure: Pre-dose PK assessment was also performed on day 15 of treatment.
Whole blood was collected into a 3-ml blood tubes containing K2EDTA anti-coagulant and centrifuged at 1000 g for 10 min at 4°C. Plasma was kept as an aliquot and frozen at −80°C. […] The samples were centrifuged at 1200 g for 10 min at 4°C, and the supernatant was stored at −80°C until analysis at MPI Research, Mattawan, MI, USA. Pharmacokinetic parameters were calculated by a non-compartmental method using WinNonlin 4.0 software (Pharsight Corporation, Mountain View, CA, USA). Peak plasma concentration (Cmax) and time to peak concentration (Tmax) were estimated from the plasma drug concentration–time curve. The elimination half-life (T1/2) during the log-linear terminal phase was calculated from the elimination rate constant determined by a linear regression analysis. The area under the concentration time curve extrapolated to infinity (AUC0−∞) was calculated by the log-linear trapezoidal method for the observed values, with extrapolation to infinity including at least three points on the terminal phase.

[9] = tested on: advanced solid tumours; experiment: Anti-tumour activity (RECIST 1.0); assay type: in vivo, human; conditions: for Period of disease stabilisation: colorectal carcinoma patient
Procedure: For patients with measurable disease at baseline, response was assessed using the Response and Evaluation Criteria in Solid Tumours version 1.0 ([Therasse et al, 2000]).

[10] = tested on: cancer cells; parameters: method as in Novotny-Diermayr et al, 2010; conditions: ref Novotny-Diermayr et al, 2010; cited from earlier work
[11] = oral, 10 mg, Day 1, dose level 1, 10 mg, 3 days every 2 weeks
[12] = oral, 10 mg, Day 1, dose level 2, 10 mg
[13] = oral, 10 mg, Day 3 or 5, dose level 1, 10 mg, 3 days every 2 weeks
[14] = oral, 10 mg, Day 3 or 5, dose level 2, 10 mg
[15] = oral, 20 mg, Day 1, dose level 3, 20 mg
[16] = oral, 20 mg, Day 3 or 5, dose level 3, 20 mg
[17] = oral, 30 mg, Day 1, dose level 4, 30 mg
[18] = oral, 30 mg, Day 3 or 5, dose level 4, 30 mg
[19] = oral, 50 mg, Day 1, dose level 5, 50 mg
[20] = oral, 50 mg, Day 3 or 5, dose level 5, 50 mg
[21] = oral, 60 mg, Day 1, dose level 5.5, 60 mg
[22] = oral, 60 mg, Day 3 or 5, dose level 5.5, 60 mg
[23] = oral, 70 mg, Day 1, dose level 6, 70 mg
[24] = oral, 70 mg, Day 3 or 5, dose level 6, 70 mg
[25] = oral, 90 mg, Day 1, dose level 7, 90 mg
[26] = oral, 90 mg, Day 3 or 5, dose level 7, 90 mg

For CCCCc1nc2cc(/C=C/C(=O)NO)ccc2n1CCN(CC)CC [SB939, 3-[2-butyl-1-(2-diethylaminoethyl)-1H-benzoimidazol-5-yl]-N-hydroxyacrylami-hydrochloride], the RPTD [1] is given as 60 mg, the “Increase in bioavailability compared with vorinostat” value [2] is given as > 4 fold and the “Longer half-life compared with vorinostat” value [2] is given as 3.3 fold. For the same molecule, the “Effectiveness compared with vorinostat” value [3] was “more effective than vorinostat”, the Anti-proliferative activities [4] was “significant anti-proliferative activities” and the “Effects on other zinc-binding enzymes” value [5] was “no effects”. The “No observed adverse effect level” value [6] was 60 mg m^−2 per day, the “Dose–PD relationship of AcH3” value ([7]; 10 to 90 mg) was “no clear dose–PD relationship” and the “Change in AcH3 in PBMCs” value ([7]; cycle 1, 3 h or 24 h post-treatment) was “Increases in AcH3 were seen”. The “Dose proportionality of mean AUC” value ([8]; between 10 and 90 mg) was “dose-proportional increases in AUC; also recorded: increased dose proportionally”, the “Accumulation on Day 5 compared with Day 1” value ([8]; daily x 5 dosing) was “no accumulation” and the AUC(0-inf) [8, 11] was 127 ng·h/mL. It also gave a Cmax [8, 11] of 14.6 ng/mL, a half-life ([8]; oral, 10 mg, Day 1, dose level 1, 10 mg, 3 days every 2 weeks, read-out: T1/2, mean (converted)) of 7.1 h and a Tmax ([8]; oral, 10 mg, Day 1, dose level 1, 10 mg, 3 days every 2 weeks, read-out: Tmax, mean) of 2.5 h. It also gave an AUC(0-inf) [8, 12] of 137 ng·h/mL, a Cmax [8, 12] of 19.5 ng/mL and a half-life ([8]; oral, 10 mg, Day 1, dose level 2, 10 mg, read-out: T1/2, mean (converted)) of 8.6 h. It also gave a Tmax ([8]; oral, 10 mg, Day 1, dose level 2, 10 mg, read-out: Tmax, mean) of 1.1 h, an AUC(0-inf) [8, 13] of 147 ng·h/mL and a Cmax [8, 13] of 18.3 ng/mL. For the same molecule, the half-life ([8]; oral, 10 mg, Day 3 or 5, dose level 1, 10 mg, 3 days every 2 weeks, read-out: T1/2, mean (converted)) was 8.3 h, the Tmax ([8]; oral, 10 mg, Day 3 or 5, dose level 1, 10 mg, 3 days every 2 weeks, read-out: Tmax, mean) was 1.3 h and the AUC(0-inf) [8, 14] was 188 ng·h/mL. The Cmax [8, 14] was 23.3 ng/mL, the half-life ([8]; oral, 10 mg, Day 3 or 5, dose level 2, 10 mg, read-out: T1/2, mean (converted)) was 8.1 h and the Tmax ([8]; oral, 10 mg, Day 3 or 5, dose level 2, 10 mg, read-out: Tmax, mean) was 1.3 h. For the same molecule, the AUC(0-inf) [8, 15] was 244 ng·h/mL, the Cmax [8, 15] was 45.9 ng/mL and the half-life ([8]; oral, 20 mg, Day 1, dose level 3, 20 mg, read-out: T1/2, mean (converted)) was 5.9 h. The Tmax ([8]; oral, 20 mg, Day 1, dose level 3, 20 mg, read-out: Tmax, mean) was 1.5 h, the AUC(0-inf) [8, 16] was 424 ng·h/mL and the Cmax [8, 16] was 51.3 ng/mL. It also gave a half-life ([8]; oral, 20 mg, Day 3 or 5, dose level 3, 20 mg, read-out: T1/2, mean (converted)) of 7.7 h, a Tmax ([8]; oral, 20 mg, Day 3 or 5, dose level 3, 20 mg, read-out: Tmax, mean) of 1.6 h and an AUC(0-inf) [8, 17] of 384 ng·h/mL. It also gave a Cmax [8, 17] of 55.8 ng/mL, a half-life ([8]; oral, 30 mg, Day 1, dose level 4, 30 mg, read-out: T1/2, mean (converted)) of 8.6 h and a Tmax ([8]; oral, 30 mg, Day 1, dose level 4, 30 mg, read-out: Tmax, mean) of 1.8 h. For the same molecule, the AUC(0-inf) [8, 18] was 544 ng·h/mL, the Cmax [8, 18] was 74.3 ng/mL and the half-life ([8]; oral, 30 mg, Day 3 or 5, dose level 4, 30 mg, read-out: T1/2, mean (converted)) was 8.8 h. It also gave a Tmax ([8]; oral, 30 mg, Day 3 or 5, dose level 4, 30 mg, read-out: Tmax, mean) of 1.6 h, an AUC(0-inf) [8, 19] of 661 ng·h/mL and a Cmax [8, 19] of 124 ng/mL. For the same molecule, the half-life ([8]; oral, 50 mg, Day 1, dose level 5, 50 mg, read-out: T1/2, mean (converted)) was 5.6 h, the Tmax ([8]; oral, 50 mg, Day 1, dose level 5, 50 mg, read-out: Tmax, mean) was 1.6 h and the AUC(0-inf) [8, 20] was 794 ng·h/mL. For the same molecule, the Cmax [8, 20] was 101 ng/mL, the half-life ([8]; oral, 50 mg, Day 3 or 5, dose level 5, 50 mg, read-out: T1/2, mean (converted)) was 8.9 h and the AUC(0-inf) [8, 21] was 1030 ng·h/mL. It also gave a Cmax [8, 21] of 210 ng/mL, a half-life ([8]; oral, 60 mg, Day 1, dose level 5.5, 60 mg, read-out: T1/2, mean (converted)) of 6.7 h and a Tmax ([8]; oral, 60 mg, Day 1, dose level 5.5, 60 mg, read-out: Tmax, mean) of 1.2 h. The AUC(0-inf) [8, 22] was 1630 ng·h/mL, the Cmax [8, 22] was 262 ng/mL and the half-life ([8]; oral, 60 mg, Day 3 or 5, dose level 5.5, 60 mg, read-out: T1/2, mean (converted)) was 6.9 h. The Tmax ([8]; oral, 60 mg, Day 3 or 5, dose level 5.5, 60 mg, read-out: Tmax, mean) was 1.3 h, the AUC(0-inf) [8, 23] was 1050 ng·h/mL and the Cmax [8, 23] was 178 ng/mL. For the same molecule, the half-life ([8]; oral, 70 mg, Day 1, dose level 6, 70 mg, read-out: T1/2, mean (converted)) was 7 h, the Tmax ([8]; oral, 70 mg, Day 1, dose level 6, 70 mg, read-out: Tmax, mean) was 1.6 h and the AUC(0-inf) [8, 24] was 1130 ng·h/mL. For the same molecule, the Cmax [8, 24] was 160 ng/mL, the half-life ([8]; oral, 70 mg, Day 3 or 5, dose level 6, 70 mg, read-out: T1/2, mean (converted)) was 6.4 h and the Tmax ([8]; oral, 70 mg, Day 3 or 5, dose level 6, 70 mg, read-out: Tmax, mean) was 1.5 h. It also gave an AUC(0-inf) [8, 25] of 1130 ng·h/mL, a Cmax [8, 25] of 229 ng/mL and a half-life ([8]; oral, 90 mg, Day 1, dose level 7, 90 mg, read-out: T1/2, mean (converted)) of 6.4 h. For the same molecule, the Tmax ([8]; oral, 90 mg, Day 1, dose level 7, 90 mg, read-out: Tmax, mean) was 1 h, the AUC(0-inf) [8, 26] was 1230 ng·h/mL and the Cmax [8, 26] was 116 ng/mL. The half-life ([8]; oral, 90 mg, Day 3 or 5, dose level 7, 90 mg, read-out: T1/2, mean (converted)) was 6.1 h, the Tmax ([8]; oral, 90 mg, Day 3 or 5, dose level 7, 90 mg, read-out: Tmax, mean) was 1.5 h and the Tmax ([8]; po, 10 to 90 mg oral, read-out: Tmax, range over dose levels) was 1 to 2.5 h. The half-life ([8]; po, 10 to 90 mg oral, read-out: Elimination (terminal) half-life, range over dose levels) was 5.6 to 8.9 h, the Objective tumour responses ([9]; 31 evaluable patients) was “No objective tumour responses” and the “Period of disease stabilisation” value ([9]; dose level 2) was 8.1 months. The “Period of disease stabilisation” value ([9]; dose level 3) was 10.8 months, the “Period of disease stabilisation” value ([9]; dose level 4) was 7.4 months and the “Disease stabilisation of >6 months, no. of patients” value ([9]; metastatic colorectal carcinoma) was “Three”. For the same molecule, the “Best response stable disease” value ([9]; of the 31 evaluable) was 32%, the “Best response stable disease, no. of patients” value ([9]; of the 31 evaluable) was “Ten” and the Disease progression ([9]; of the 31 evaluable) was 68%. The “Disease progression, no. of patients” value ([9]; of the 31 evaluable) was 21, the “Median duration of disease control” value ([9]; patients with SD) was 5.7 months and the “Range of duration of disease control” value ([9]; patients with SD) was 1.8–10.8 months. For the same molecule, the “Immunoblot changes after treatment” value [10] was “accumulation of acetylated histone H3 (AcH3) and acetylated α-tubulin, as well as increased expression levels of the cyclin dependant kinase inhibitor p21”.
